Experimental data as given in patent EP0661044A1 (priority 1991, dated 1993).

Test: Entrapment of daunorubicin in distearoyl phosphatidylcholine-cholesterol vesicles using ethylenediamine citrate (ion-exchange loading)
Assay type: physicochemical
Conditions: lipid:drug ratio approximately at least 16:1 (mol/mol as printed); 65°C for about 10 minutes; typical value
Description: A dry powder containing a homogenous dispersion of cholesterol and distearoylphosphatidylcholine at a 1:2 molar ratio was prepared by evaporation from a 1:1 chloroform/methanol solution. […] The lipid concentration in the resulting suspension was about 20 to 25 mg/ml. This mixture was then heated to 65°C. Next, while maintaining that temperature, the mixture was homogenized using a sonicator to produce a suspension of small unilamellar vesicles. The vesicles thus obtained had diameters principally in the range of about 40 to 80 nm with little or no particles in excess of 100 nm.
Following homogenization, the mixture underwent a buffer exchange to remove the external, unentrapped, ethylenediamine citrate. This was accomplished by subjecting the mixture to tangential flow ultrafiltration. This process removes water and small molecular weight solutes while retaining lipid vesicles and their contents. Using this process, the lactose/ethylenediamine citrate buffer external to the vesicles was replaced with 250 mM lactose/50 mM glycine. The vesicle preparation was heated to about 65°C and an amount of daunorubicin (base or suitable salt form) was added to yield a lipid to drug ratio in the range of about 16:1 to 19:1 or more (w/w), but preferably 17.4:1. […]

COc1cccc2c1C(=O)c1c(O)c3c(c(O)c1C2=O)C[C@@](O)(C(C)=O)C[C@@H]3O[C@H]1C[C@H](N)[C@H](O)[C@H](C)O1 [daunorubicin]
added daunorubicin vesicle entrapped as daunorubicin-citrate: greater than 90%
